# Laboratory results reported in patent US8586548B2, “NAP alpha-aminoisobutyric acid analog with neuroprotective activity” (Ramot at Tel-Aviv University, Ltd., priority 2009, dated 2013).
# “Also recorded” adds a separate entry of the source. Non-standard residues stand in square brackets, D forms with d. No end group written: not given here. Aib = CC(C)(N)C(=O)O
# What was measured:
# [1] = tested on: cerebral cortical cultures derived from newborn rats; assay: Neuronal survival in cerebral cortical cultures treated with beta-amyloid peptide (1-42); type: cell-based, rat; details: for protection of neurons against neurotoxicity of beta-amyloid peptide 1-42 (neuronal cell numbers): 2.5 μM beta-amyloid peptide (1-42), peptide 10^−16M to 10^−10M, p<0.001, FIG. 1; for neuroprotective activity compared with unmodified NAP: FIG. 1 compared with FIG. 2, 2.5 micromolar beta amyloid peptide
# Description: All peptides were dissolved in distilled sterile water to a concentration of 1 mM and then diluted in water in 1:10 steps up to the required concentration. The beta-amyloid peptide (1-42) was obtained from American Peptides, Calif., USA.
# Cerebral cortical cultures derived from newborn rats were used for neuron survival assays. For mixed neuroglial cultures, neurons 300,000 cells/35 mm dish were seeded on 8-day-old astrocytes prepared as described (Bassan et al., supra (1999); Brenneman et al., supra (2004)). Cells were allowed to grow for one week at 37° C. 10% CO2 before experiments were performed. Four days after neuronal plating, cultures were given their respective treatment and assayed for neuronal survival after an additional 5 day incubation period.
# The culture medium was removed and cells were washed twice with phosphate buffered saline (PBS). 1.5 ml of 3% glutaraldehyde (Fluka Biochemika, Steinheim, Germany) in 0.1 M cacodylic acid pH 7.2 (Fluka Biochemika, Steinheim, Germany) was added for two hours. The cells were then washed with PBS and 2 ml of 0.15 M cacodylic acid pH 7.2 was added. Neuronal identity was established by morphological criteria using an Olympus CK2 light microscope (Olympus, Japan) with a X40 lens. Fifty fields were counted in each dish (Zemlyak et al., supra (2000)).
# The number of surviving neurons was assessed in cerebral cortical cultures derived from newborn rats using the beta-amyloid peptide (1-42), an Alzheimer's disease-associated toxin, at 2.5 μM. Alpha-aminoisobutric NAP was used at the following concentrations: 10^−16M, 10^−15M, 10^−12M, 10^−10M. […] Cell counts totaled>100% of control, because the treatment prevents neuronal cell death that occurred naturally in the cultures (10-20%), as observed before (Bassan et al., supra (1999)). […] This is an unexpected finding in view of previous reports that describe the SIP motif as essential for NAP neuroprotection (Wilkemeyer et al., Proc Natl Acad Sci USA, 100(14):8543-8 (2003)).
# [2] = molecular target: VQIVYK (SEQ ID NO:10) peptide derived from tau (Homo sapiens, UniProt P10636); assay: In vitro tau-like VQIVYK aggregation assay (Thioflavin S); type: biochemical
# Description: In the presence of polyglutamic acid (or heparin), VQIVYK (SEQ ID NO:10) aggregates which can be further detected by Thioflavin S (excitation 485 nm and emission 535) with emission intensity greatly increasing.
# First, different concentrations of polyglutamic acid (0, 100 μM, 250 μM, and 400 μM) VQIVYK (SEQ ID NO:10) and either […] (NH4Ac) 50 mM pH 6.5 or MOPS 20 mM pH 6.5 and Thioflavin S 5 μM were mixed together and incubated at room temperature. The extent of aggregation was read at excitation 485 nm and emission 535 nm using the infinite 200 system with the Magellan program.
# The peptides were added at a range of concentrations (10^−17-10^−9 M) and the extent of aggregation of 100 μM VQIVYK (SEQ ID NO:10) was tested in the presence of polyglutamate 250 μM in MOPS 20 μM, pH 6.5 for 7 days.
# In order to avoid reading self peptide aggregation as VQIVYK aggregation, for each peptide concentration, the fluorescence of the peptide solution without VQIVYK was subtracted from the fluorescence of each peptide concentration containing VQIVYK.
# [3] = listed as Alpha-aminoisobutric NAP
# [4] = 100 μM VQIVYK, polyglutamate 250 μM, MOPS pH 6.5, 7 days, FIG. 4, p<0.0005 vs. control, listed as IsoNAP
substance,measurement,setting,value
"NAXaaVSIXaaQ (NA[Aib]VSI[Aib]Q) [Alpha-aminoisobutyric NAP, both prolines of NAP substituted]",cell counts,[1]; 2.5 μM beta-amyloid peptide (1-42) plus peptide,> 100 % of control
same,protection of neurons against neurotoxicity of beta-amyloid peptide 1-42 (neuronal cell numbers),[1]; [3],protected against neurotoxicity associated with the beta-amyloid peptide 1-42
same,protection of neurons against neurotoxicity of beta-amyloid peptide 1-42 (neuronal cell numbers),[1]; listed as alpha-aminoisobutric NAP,confers protection of neurons
same,neuroprotective activity compared with unmodified NAP,[1],increased neuroprotective activity
same,neuroprotective activity compared with unmodified NAP,[1]; [3],increased activity
same,inhibition of tau aggregation at 10^−13M,[2]; [4],remains effective; also recorded: more effective than NAP
same,inhibition of tau aggregation at 10^−17M,[2]; [4],more potent; also recorded: more effective than NAP
same,prevention of tau aggregation (overall),[2]; peptides at 10^−17-10^−9 M,effective for preventing tau aggregation
